These results are taken from PubChem BioAssay (NCI).

Test systems include HCT-15 colon; IGROV1 ovarian; COLO 205 colon; HOP-92 NSCLC; K-562 leukemia; HL-60(TB) leukemia; A549 NSCLC; SK-MEL-5 melanoma; KM12 colon; U251 CNS.
Assay in all cases: NCI anticancer screen, dose series, 48 h

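Following 48 hours of exposure in 96-well plates, responses at five concentrations were used to interpolate endpoints linearly. At the GI50, growth is halved. TGI: total growth inhibition.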 Bounds are passed on as bounds.

For the molecule `COc1ccccc1-c1c(C)nn2c(NCc3ccccn3)cc(C)nc12`, the GI50 in the assay with HCT-15 colon was 9.76 µM; in the assay with IGROV1 ovarian, above 37.5 µM; with COLO 205 colon, 1.92 µM; in the assay on HOP-92 NSCLC, 15.9 µM; in the assay on K-562 leukemia, 5.85 µM; in the assay with HL-60(TB) leukemia it was 20.4 µM. Besides, the GI50 in the assay with A549 NSCLC is 26.7 µM; in the assay with SK-MEL-5 melanoma it was 14.8 µM; in the assay with KM12 colon it was above 46.6 µM; with U251 CNS, above 41.9 µM. The TGI with HCT-15 colon, with IGROV1 ovarian, in the assay with COLO 205 colon, in the assay on HOP-92 NSCLC, in the assay with K-562 leukemia and in the assay on HL-60(TB) leukemia was above 50 µM throughout. The TGI in the assay with A549 NSCLC was above 50 µM; with SK-MEL-5 melanoma, 49.6 µM; with KM12 colon, above 50 µM; with U251 CNS, above 50 µM.
For the molecule `CC1CC2(CC[C@@H]1O)OCCO2` (stereo not given in full), the TGI with HCT-15 colon, in the assay on IGROV1 ovarian, with COLO 205 colon, in the assay with HOP-92 NSCLC, in the assay with K-562 leukemia and in the assay with HL-60(TB) leukemia was above 100 µM each time. Moreover, the TGI with A549 NSCLC, with SK-MEL-5 melanoma, in the assay on KM12 colon and in the assay on U251 CNS was above 100 µM throughout.
As for `Cc1ccc2c(c1)ncn2-c1ncnc2c1CC(C)c1ccccc1N2C` (stereo not given), the GI50 was 0.0984 µM in the assay on HCT-15 colon; 0.256 µM in the assay on IGROV1 ovarian; 0.198 µM in the assay with COLO 205 colon; 3.77 µM with HOP-92 NSCLC; 0.0399 µM with K-562 leukemia; 0.0282 µM with HL-60(TB) leukemia. Also, the GI50 was 0.248 µM in the assay on A549 NSCLC, 0.138 µM in the assay with SK-MEL-5 melanoma, 0.106 µM with KM12 colon and 0.086 µM in the assay on U251 CNS. The TGI with HCT-15 colon stood at 12.5 µM; in the assay with IGROV1 ovarian, 7.68 µM; in the assay on COLO 205 colon it was 0.666 µM; in the assay on HOP-92 NSCLC it was 18.7 µM; with K-562 leukemia it was 11.2 µM; with HL-60(TB) leukemia, 0.0781 µM. Besides, the TGI in the assay on A549 NSCLC was 17.5 µM; with SK-MEL-5 melanoma, 1.32 µM; with KM12 colon it was 14.6 µM; in the assay with U251 CNS, 13.9 µM.
Take `O=C(O)c1c[nH]cc1C(=O)O`: the TGI in the assay with HCT-15 colon, in the assay with IGROV1 ovarian, in the assay on COLO 205 colon, in the assay on HOP-92 NSCLC, with K-562 leukemia and in the assay with HL-60(TB) leukemia was above 100 µM throughout. In addition, the TGI in the assay on A549 NSCLC, with SK-MEL-5 melanoma, in the assay with KM12 colon and in the assay on U251 CNS was above 100 µM throughout.
In the case of `CCOC(=O)N1CCN(S(=O)(=O)c2oc(-c3ccc(Cl)cc3)nc2C#N)CC1`, the GI50 with HCT-15 colon was 1.49 µM; with IGROV1 ovarian it was 1.75 µM; in the assay with COLO 205 colon, 2.05 µM; in the assay with HOP-92 NSCLC, 1.8 µM; in the assay on K-562 leukemia, 1.59 µM; with HL-60(TB) leukemia, 2.14 µM. Moreover, the GI50 is 24.9 µM in the assay on A549 NSCLC, 2.51 µM in the assay on SK-MEL-5 melanoma, 10.5 µM with KM12 colon and 5.49 µM with U251 CNS. Further, the TGI in the assay with HCT-15 colon is 3.3 µM; in the assay with IGROV1 ovarian, 3.47 µM; with COLO 205 colon, 4.25 µM; in the assay on HOP-92 NSCLC it was 3.75 µM; with K-562 leukemia it was above 100 µM; in the assay on HL-60(TB) leukemia, 7.15 µM. For the same molecule, the TGI in the assay with A549 NSCLC was above 100 µM; in the assay with SK-MEL-5 melanoma, 6.46 µM; in the assay with KM12 colon it was 35.6 µM; with U251 CNS it was 19.6 µM.
As for `CC(=O)NC(CCCN(Cc1ccccc1)C(=O)N(CCCl)N=O)C(=O)NCc1ccccc1` (stereo not given), the TGI in the assay with HCT-15 colon is above 100 µM; with IGROV1 ovarian it was above 100 µM; in the assay on COLO 205 colon, above 100 µM; in the assay on HOP-92 NSCLC it was above 91.8 µM; with K-562 leukemia, above 100 µM; in the assay on HL-60(TB) leukemia it was 57.1 µM. The TGI in the assay with A549 NSCLC was above 100 µM; with SK-MEL-5 melanoma, above 76.7 µM; in the assay with KM12 colon, above 100 µM; in the assay with U251 CNS, above 100 µM.
For the molecule `O=C1CC2C(=O)N(Cc3ccccc3)C1C(S(=O)(=O)c1ccccc1)C2S(=O)(=O)c1ccccc1` (stereo not given), the TGI in the assay with HCT-15 colon is 2.91 µM; in the assay on IGROV1 ovarian it was 36 µM; in the assay on COLO 205 colon, 3.18 µM; in the assay with HOP-92 NSCLC it was 4.24 µM; in the assay on K-562 leukemia, 6.66 µM; with HL-60(TB) leukemia, 3.51 µM. The TGI with A549 NSCLC amounted to 33.2 µM; in the assay with SK-MEL-5 melanoma, 29.2 µM; in the assay on KM12 colon, 29.7 µM; with U251 CNS, 8.61 µM.
For `C=C[C@]1(C)C=C2C(=O)[C@@]3(O)OC[C@@]4(CCCC(C)(C)C43O)C2(O)C(O)C1` (stereo not given in full), the GI50 with HCT-15 colon is 3.04 µM; in the assay with IGROV1 ovarian, 1.55 µM; in the assay with COLO 205 colon it was 1.54 µM; with HOP-92 NSCLC, 5.13 µM; with K-562 leukemia it was 2.8 µM; in the assay on HL-60(TB) leukemia it was 3.41 µM. Also, the GI50 with A549 NSCLC is 14.5 µM; in the assay on SK-MEL-5 melanoma, 14.5 µM; in the assay with KM12 colon, 13.1 µM; in the assay with U251 CNS, 13.6 µM. Besides, the TGI is 9.21 µM in the assay on HCT-15 colon; 6.36 µM in the assay on IGROV1 ovarian; 3.08 µM with COLO 205 colon; 18.5 µM in the assay on HOP-92 NSCLC; above 27.9 µM in the assay with K-562 leukemia; 13 µM in the assay with HL-60(TB) leukemia. Further, the TGI is 30.8 µM in the assay with A549 NSCLC, 27.8 µM in the assay with SK-MEL-5 melanoma, 26.8 µM in the assay on KM12 colon and 28.1 µM with U251 CNS.
Consider `O=[N+]([O-])c1ccc(CS(=O)Cc2ccccc2)cc1` (stereo not given), for which the TGI in the assay with HCT-15 colon, in the assay with IGROV1 ovarian, in the assay with COLO 205 colon, in the assay with HOP-92 NSCLC, in the assay on K-562 leukemia and with HL-60(TB) leukemia was above 100 µM each time. Also, the TGI in the assay with A549 NSCLC, in the assay on SK-MEL-5 melanoma, in the assay with KM12 colon and in the assay on U251 CNS was above 100 µM throughout.
For the molecule `CCOC(=O)c1cnn(-c2ccnc3c(C(F)(F)F)cccc23)c1N`, the GI50 in the assay with HCT-15 colon was above 100 µM; with IGROV1 ovarian, above 100 µM; in the assay on COLO 205 colon it was above 100 µM; in the assay on HOP-92 NSCLC it was 29.6 µM; in the assay on K-562 leukemia, above 100 µM; in the assay with HL-60(TB) leukemia it was above 100 µM. The GI50 in the assay on A549 NSCLC, with SK-MEL-5 melanoma, with KM12 colon and in the assay with U251 CNS was above 100 µM each time. Besides, the TGI with HCT-15 colon, in the assay with IGROV1 ovarian, in the assay with COLO 205 colon, in the assay on HOP-92 NSCLC, with K-562 leukemia and in the assay on HL-60(TB) leukemia was above 100 µM each time. The TGI with A549 NSCLC, in the assay with SK-MEL-5 melanoma, in the assay with KM12 colon and in the assay on U251 CNS was above 100 µM each time.
